Data taken from publication PMC8778133 (Pharmaceutics, 2021).
In brackets after ≈: the same amount, converted by molar mass. Several values for one entry are separate records, joined by “and”; a condition that tells them apart may be missing. Equal values may be shown once. Read-outs that look alike come from different tables or passages of the source.

Columns and labels:
[1] = Intrinsic dissolution rate, small-scale dissolution assay at single GIT pH values; assay type: physicochemical; settings: for % Dissolved at t = 30 min / Dissolution Rate: SD in brackets; for Dissolution Rate: fitting of Equation (1), kdS
Protocol: Dissolution tests were performed with a small-scale dissolution assay installed in the GlpKaTM titrator. […] Then, 1.5 mL of 0.125 M acetate-phosphate buffer at pH 1.6 was introduced into the vial without wetting the tablet surface. […] The final volume was 15 mL. UV-visible absorption spectra were recorded every 30 s with a fiber-optic probe immersed in the solution. […] Spectral regions where the signal was saturated (A > 1.5) were discarded. Dissolution rate was obtained through the fitting of the first-order Noyes-Whitney exponential equation to the data:(1) [[…]0)) In this equation, [X]t is the weight (g) of compound in solution at a given time (min); […] Dissolution rate is calculated through a refinement process in which S, kd and t0 optimal values are obtained by minimizing the root mean square deviation between the modeled concentrations and the measured ones.

[2] = 4-sector pH dissolution test (pH stepped from 2.0 to 7.4); assay type: physicochemical; settings: 4-sector test
Protocol: To perform the 4-sector dissolution rate determinations, the same procedure was followed, but, after adjusting the initial pH to 2.0 and monitoring dissolution for 30 min at this pH, the pH was automatically raised to the next value by addition of KOH. Then, dissolution was monitored again for 30 more minutes. This stepping procedure was repeated until dissolution in the four sectors was covered.

[3] = pKa determination by potentiometric titration; assay type: physicochemical; settings: for pKa: 0.15 M KCl aqueous solution
Protocol: The sample was pre-alkalinized to pH 12 with 0.5 M standardized KOH. Then, it was titrated with standardized 0.5 M HCl. All titrations were carried out at 0.15 M ionic strength and a temperature of 25 °C, under a nitrogen atmosphere. […] The Debye–Hückel equation was used to obtain the thermodynamic pKa values.

[4] = Solubility by the shake-flask method; assay type: physicochemical; settings: for solubility at 24 h: universal buffer
Protocol: A universal buffer composed of 75 mM trifluoroacetic acid, 25 mM acetic acid, and 25 mM ethylenediamine, adjusted with 1M sodium hydroxide up to pH 7.5, was used (ionic strength, I = 0.1 M). Samples were prepared by adding a weighted amount of solid (enough to obtain saturated solutions) to 2 mL of the buffered solution. After this, solutions were shaken at a controlled temperature (25.0 ± 0.2 °C) for 24 h, but, after 4 h of agitation, the pH was checked and, if necessary, readjusted to the initial value with small amounts of 1 M hydrochloric acid or 1 M sodium hydroxide solution. After the 24 h stirring, samples were left to stand for equilibration for 24 more hours [32, 33, 34]. The pH was measured and phases separated by centrifugation in a Rotanta 460RS centrifuge from Hettich Lab Technology (Tuttlingen, Germany), at a controlled temperature (25 °C) and 3500 rpm for 30 min.
The remaining solid was dried under vacuum for 30 min and stored at 4 °C until XRPD analysis. […] A Shimadzu (Kyoto, Japan) liquid chromatograph, equipped with two LC-10AD pumps and a SPD-10AV detector, was used. Temperature was controlled at 25.0 ± 0.1 °C with a CTO-10AS column oven. The column was a Symmetry C18, with 5 μm particle size and dimensions of 4.6 × 150 mm from Waters (Milford, MA, USA). Mobile phase was composed of 20 mM phosphate buffer at pH 7 (A) and acetonitrile (B). Elution was in gradient mode (time (min), %B: 0,3; 1,3; 5,25; 10,25; 12,3; 15,3). […] To quantify, six standard solutions were prepared in the linear range (5–60 mgL^−1 for both compounds). Standards were dissolved in an acetonitrile/water mixture at a proportion of 25/75 (v/v). In a first attempt, saturated supernatants were injected directly, and, when necessary, they were appropriately diluted in water to ensure that they fit within the range of calibration.

[5] = pH of saturated Norfloxacin solutions in dissolution media (pHx=0 effect test); assay type: physicochemical; settings: for pH of saturated solution after 24 h: agitation
Protocol: However, instead of adding a Norfloxacin tablet, the powder was directly weighted into the vials until saturated solutions of Norfloxacin were obtained. Then, the solutions were allowed to stand under agitation at 25 °C for 24 h. After this, the pH of the solutions was measured again. […] This effect is more evident for the API dissolution than for the cocrystal because the amount of API released in the cocrystal is lower compared to the pure API.

[6] = design: method as in doi:10.1016/0378-5173(90)90130-V, PMID 16307530; settings: cited from earlier work
[7] = water, 25 °C and 0 ionic strength, potentiometry, given as ref 37 (authors' unpublished work), read-out: pKa (first)

Compound	Final Solid Form ([1]; after dissolution at pH 2.0)	Final Solid Form ([1]; after dissolution at pH 4.0)	Final Solid Form ([1]; after dissolution at pH 5.5)	Final Solid Form ([1]; after dissolution at pH 7.4)	% Dissolved at t = 30 min ([1]; pH 2.0)	Dissolution Rate ([1]; pH 2.0)	% Dissolved at t = 30 min ([1]; pH 4.0)	Dissolution Rate ([1]; pH 4.0)	% Dissolved at t = 30 min ([1]; pH 5.5)	Dissolution Rate ([1]; pH 5.5)	% Dissolved at t = 30 min ([1]; pH 7.4)	Dissolution Rate ([1]; pH 7.4)	pKa [3, 7]	further results
CCn1cc(C(=O)O)c(=O)c2cc(F)c(N3CCNCC3)cc21.Oc1cccc(O)c1 [Norfloxacin–resorcinol cocrystal]	Monohydrate	Monohydrate	Monohydrate	Monohydrate	94.4 (1.1) %	2.53 (1.63) μg min^−1	91.2 (0.9) %	0.70 (0.15) μg min^−1	48.0 (12.5) %	0.33 (0.04) μg min^−1	9.6 (1.0) %	0.19 (0.10) μg min^−1		% Dissolved at t = 30 min ([1]; pH 5.5, listed as cocrystal): 48%; % Dissolved at t = 30 min ([1]; pH 7.4, listed as cocrystal): 7%; percentage of the API remaining in the solution ([2]; after pH increased to 7.4 (sudden precipitation)): 80%; percentage of Norfloxacin in the solution ([2]; from pH 2.0 to pH 5.5, 30 min at each pH): ~90%; dissolution in the first sector ([2]; pH 2.0, 30 min): almost complete dissolution
Oc1cccc(O)c1 [Resorcinol, resorcinol]													9.47 ± 0.02	pKa ([3]; water, 25 °C and 0 ionic strength, potentiometry, given as ref 37 (authors' unpublished work), read-out: pKa (second)): 11.6 ± 0.04
CCn1cc(C(=O)O)c(=O)c2cc(F)c(N3CCNCC3)cc21 [Norfloxacin]	Tetrahydrate	Tetrahydrate	Tetrahydrate	Tetrahydrate	100% and 101.2 (6.3) %	4.16 (0.73) μg min^−1	71% and 71.3 (6.9) %	0.79 (0.03) μg min^−1	23% and 23.0 (5.2) %	0.19 (0.02) μg min^−1	9.4 (1.0) %	0.06 (0.01) μg min^−1	6.35 ± 0.04	solid phase obtained after the shake-flask experiments (XRPD) ([4]; aqueous buffer, 24 h stirring + 24 h standing, 25 °C): tetrahydrate; intrinsic solubility of the zwitterionic form (S0) ([4]; calculated from shake-flask solubility and Equation (7), pKa' at I = 0.1 M, corresponds to tetrahydrate form): 0.319 ± 0.019 mg/mL; solubility at 24 h ([4]; pH 7.25, shake-flask, 25 °C, I = 0.1 M, final pH 7.25, n = 3, solid transformed to tetrahydrate, read-out: solubility): 394 ± 18 µg/mL (≈ 1230 µM); solubility at 24 h ([4]; pH 7.5, calculated from shake-flask solubility and Equation (7), pKa' at I = 0.1 M, corresponds to tetrahydrate form, read-out: intrinsic solubility of the zwitterionic form (S0)): 320 ± 20 µg/mL (≈ 1000 µM); percentage of compound in the zwitterionic form ([3]; pH 5.5, species distribution (Figure S12)): around 12%; maximum percentage of the zwitterionic form ([3]; pH 7.5, species distribution from pKa values (Figure S12)): around 90%; pKa (second) ([3]; water, 25 °C and 0 ionic strength, potentiometry, given as ref 37 (authors' unpublished work)): 8.80 ± 0.04; % Dissolved at t = 30 min ([1]; pH 2.0, listed as API): complete; % Dissolved at t = 30 min ([1]; pH 7.4, listed as API): 7%; pH of saturated solution after 24 h ([5]; dissolution medium initially at pH 4.0, 25 °C): 5.8; pH of saturated solution after 24 h ([5]; dissolution medium initially at pH 5.5, 25 °C): 6.2; pH of saturated solution after 24 h ([5]; dissolution medium initially at pH 7.4, 25 °C): 7.4; positive pH increment ([5]; initial pH 4.0): 1.8 units; positive pH increment ([5]; initial pH 5.5): 0.7 units; positive pH increment ([5]; initial pH 7.4): 0 units; oral bioavailability [6]: ~ 40%
